# Source: patent US20250197407A1 (Jazz Pharmaceuticals Ireland Limited, priority 2022, published 2025)
# Molecular target: SOS1/KRAS WT (Homo sapiens (Human), UniProt Q07889)
# Experiment: SOS1/KRAS WT HTRF binding assay (FRET-based protein-protein interaction)
# Details: inhibition of His6-SOS1 (aa564-1049, 40 nM) binding to GST-KRAS-WT (aa1-188, 40 nM); at least two independent replicates; read-out: SOS1/KRAS WT HTRF Binding assay pIC50 (converted)
# Text: The capacity of compounds to inhibit SOS1 binding to KRAS-WT (wild-type) was quantified using a FRET-based protein-protein interaction assay. The assay is based on the transfer of energy between two fluorophores, a donor and an acceptor, when in close proximity. In this instance, the donor is a Europium-conjugated α-GST antibody that binds to GST-tagged KRAS-WT, and the acceptor is an XL665-conjugated α-His 6 antibody that binds to His 6-tagged SOS1. Binding of SOS1 to KRAS-WT results in an increased fluorescent signal at emission wavelength of 665 nm which can be detected on the EnVision plate reader. Compounds that inhibit binding will reduce the 665 nm signal emitted. Recombinant KRAS-WT protein (40 nM; Human KRAS, aa1-188 recombinant protein with N-terminal GST-tag) and SOS1 protein (40 nM; Human SOS1 exchange domain, aa564-1049 with N-terminal 6His-tag) were mixed together in assay buffer (5 mM HEPES pH7.3, 150 mM NaCl, 10 mM EDTA, 5 mM MgCl2, 0.05% BSA, 0.0025% NP-40, 1 mM DTT and 100 mM KF) and incubated at room temperature with a dose response of compound in a 384-well low volume white plate and a final volume of 5 ul. After a 60 minute incubation, 5 ul of 4 nM anti-GST-Eu(K) (Cisbio, France) combined with 20 nM anti-6His-XL665 (Cisbio, France), diluted in assay buffer, was added to the plate. Following a further 4 hr incubation at room temperature, time-resolved fluorescence was measured on the EnVision plate reader. DMSO (0.05%) and 10 μM reference compound were used to generate the Max and Min assay signals, respectively. Data was analysed using a four-parameter logistic model to calculate IC50 values, with at least two independent replicates performed for each compound.
# Data was analyzed using a four-parameter logistic model to calculate IC50 values, with at least two independent replicates performed for each compound.
# Sequence of SOS1/KRAS WT (Q07889 564-1049): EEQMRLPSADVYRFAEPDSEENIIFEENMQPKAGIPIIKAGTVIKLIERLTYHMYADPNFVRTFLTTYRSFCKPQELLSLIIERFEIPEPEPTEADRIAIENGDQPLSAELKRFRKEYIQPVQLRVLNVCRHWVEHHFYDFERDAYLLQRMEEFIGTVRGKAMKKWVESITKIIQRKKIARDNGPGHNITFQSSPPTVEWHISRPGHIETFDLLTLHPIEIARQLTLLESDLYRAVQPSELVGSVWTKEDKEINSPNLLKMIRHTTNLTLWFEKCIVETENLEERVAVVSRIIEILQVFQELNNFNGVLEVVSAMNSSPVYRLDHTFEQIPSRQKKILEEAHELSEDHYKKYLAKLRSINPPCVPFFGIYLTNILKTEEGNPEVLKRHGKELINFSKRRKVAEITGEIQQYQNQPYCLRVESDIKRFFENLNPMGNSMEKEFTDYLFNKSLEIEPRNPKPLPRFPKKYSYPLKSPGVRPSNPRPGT
row,IC50,SMILES
1,0.0148 µM,"Cc1nnc(N[C@H](C)c2cccc(C(F)F)c2F)c2cc3c(cc12)OC(C)(C)C(=O)N3C [Compound 30, 2,2,4,9-tetramethyl-6-[[(1R)-1-[3-(difluoromethyl)-2-fluoro-phenyl]ethyl]amino]pyridazino[4,5-g][1,4]benzoxazin-3-one]"
2,0.00977 µM,"Cc1nnc(N[C@H](C)c2cccc(C(F)(F)C(C)(C)O)c2F)c2cc3c(cc12)n(C)c(=O)n3C1CC1 [Compound 33, 3-cyclopropyl-1,8-dimethyl-5-[[(1R)-1-[3-(1,1-difluoro-2-hydroxy-2-methyl-propyl)-2-fluoro-phenyl]ethyl]amino]imidazo[4,5-g]phthalazin-2-one]"
3,0.00977 µM,"Cc1nnc(N[C@H](C)c2cccc(C(F)F)c2F)c2cc3c(cc12)n(C)c(=O)n3C1CC1 [Compound 34, 3-cyclopropyl-1,8-dimethyl-5-[[(1R)-1-[3-(difluoromethyl)-2-fluoro-phenyl]ethyl]amino]imidazo[4,5-g]phthalazin-2-one]"
4,0.0107 µM,"COCCn1c(=O)n(C)c2cc3c(C)nnc(N[C@H](C)c4cccc(C(F)(F)F)c4F)c3cc21 [Compound 35, 3-(2-methoxyethyl)-1,8-dimethyl-5-[[(1R)-1-[2-fluoro-3-(trifluoromethyl)phenyl]ethyl]amino] imidazo[4,5-g]phthalazin-2-one]"
5,0.012 µM,"COCC(F)(F)c1cccc([C@@H](C)Nc2nnc(C)c3cc4c(cc23)n(C)c(=O)n4C)c1F [Compound 36, 5-[[(1R)-1-[3-(1,1-difluoro-2-methoxy-ethyl)-2-fluoro-phenyl]ethyl]amino]-1,3,8-trimethyl-imidazo[4,5-g]phthalazin-2-one]"
6,0.0447 µM,"Cc1c(C#N)cccc1[C@@H](C)Nc1nnc(C)c2cc3c(cc12)n(C)c(=O)n3C [Compound 39, 2-methyl-3-[(1R)-1-[(1,3,8-trimethyl-2-oxo-imidazo[4,5-g]phthalazin-5-yl)amino]ethyl]benzonitrile]"
7,0.00891 µM,"Cc1nnc(N[C@H](C)c2cccc(C(F)(F)F)c2F)c2cc3c(cc12)n(C)c(=O)n3C [Compound 40, 1,3,8-trimethyl-5-[[(1R)-1-[2-fluoro-3-(trifluoromethyl)phenyl]ethyl]amino]imidazo[4,5-g]phthalazin-2-one]"
8,0.00282 µM,"Cc1nnc(N[C@H](C)c2cccc(C(F)F)c2F)c2cc3c(cc12)n(C)c(=O)n3C(C)C [Compound 43, 3-isopropyl-1,8-dimethyl-5-[[(1R)-1-[3-(difluoromethyl)-2-fluoro-phenyl]ethyl]amino]imidazo[4,5-g]phthalazin-2-one]"
9,0.00977 µM,"Cc1c(C#N)cccc1[C@@H](C)Nc1nnc(C)c2cc3c(cc12)n(C(C)C)c(=O)n3C [Compound 45, 2-methyl-3-[(1R)-1-[(3-isopropyl-1,8-dimethyl-2-oxo-imidazo[4,5-g]phthalazin-5-yl)amino]ethyl]benzonitrile]"
10,0.011 µM,"Cc1nnc(N[C@H](C)c2cccc(C(F)(F)C(C)(C)O)c2F)c2cc3c(cc12)C(C)(C)C(=O)N3C [Compound 46, 1,3,3,5-tetramethyl-8-[[(1R)-1-[3-(1,1-difluoro-2-hydroxy-2-methyl-propyl)-2-fluoro-phenyl]ethyl]amino]pyrrolo[2,3-g]phthalazin-2-one]"
11,0.0132 µM,"Cc1nnc(N[C@H](C)c2cccc(C(F)(F)F)c2)c2cc3c(cc12)n(C)c(=O)n3CC(F)F [Compound 50, 3-(2,2-difluoroethyl)-1,8-dimethyl-5-[[(1R)-1-[3-(trifluoromethyl)phenyl]ethyl]amino] imidazo[4,5-g]phthalazin-2-one]"
12,0.0234 µM,"Cc1nnc(N[C@H](C)c2cc(F)cc(C(F)(F)CO)c2)c2cc3c(cc12)n(C)c(=O)n3C [Compound 51, 5-[[(1R)-1-[3-(1,1-difluoro-2-hydroxy-ethyl)-5-fluoro-phenyl]ethyl]amino]-1,3,8-trimethyl-imidazo[4,5-g]phthalazin-2-one]"
13,0.00813 µM,"Cc1nnc(N[C@H](C)c2cccc(C(F)(F)F)c2F)c2cc3c(cc12)n(C)c(=O)n3C1CC1 [Compound 52, 3-cyclopropyl-1,8-dimethyl-5-[[(1R)-1-[2-fluoro-3-(trifluoromethyl)phenyl]ethyl]amino] imidazo[4,5-g]phthalazin-2-one]"
14,0.00617 µM,"Cc1c([C@@H](C)Nc2nnc(C)c3cc4c(cc23)n(C)c(=O)n4C)cccc1C(F)(F)F [Compound 54, 1,3,8-trimethyl-5-[[(1R)-1-[2-methyl-3-(trifluoromethyl)phenyl]ethyl]amino] imidazo[4,5-g]phthalazin-2-one]"
15,0.0575 µM,"COc1c([C@@H](C)Nc2nnc(C)c3cc4c(cc23)n(C)c(=O)n4C)cccc1C(F)(F)F [Compound 55, 5-[[(1R)-1-[2-methoxy-3-(trifluoromethyl)phenyl]ethyl]amino]-1,3,8-trimethyl-imidazo[4,5-g]phthalazin-2-one]"

# Continued, compound first:
row,SMILES,IC50
1,"Cc1nnc(N[C@H](C)c2cccc(C(F)F)c2F)c2cc3c(cc12)n(C)c(=O)n3C [Compound 31, 1,3,8-trimethyl-5-[[(1R)-1-[3-(difluoromethyl)-2-fluoro-phenyl]ethyl]amino]imidazo[4,5-g]phthalazin-2-one]",0.00955 µM
2,"Cc1nnc(N[C@H](C)c2cccc(C(F)(F)F)c2)c2cc3c(cc12)C(C)(C)C(=O)N3C [Compound 32, 1,3,3,5-tetramethyl-8-[[(1R)-1-[3-(trifluoromethyl)phenyl]ethyl]amino] pyrrolo[2,3-g]phthalazin-2-one]",0.0107 µM
3,"COCCn1c(=O)n(C)c2cc3c(C)nnc(N[C@H](C)c4cccc(C(F)(F)CO)c4F)c3cc21 [Compound 37, 3-(2-methoxyethyl)-1,8-dimethyl-5-[[(1R)-1-[3-(1,1-difluoro-2-hydroxy-ethyl)-2-fluoro-phenyl]ethyl]amino]imidazo[4,5-g]phthalazin-2-one]",0.0105 µM
4,"Cc1nnc(N[C@H](C)c2cccc(C(F)(F)F)c2F)c2cc3c(cc12)n(C)c(=O)n3C(C)C [Compound 38, 3-isopropyl-1,8-dimethyl-5-[[(1R)-1-[2-fluoro-3-(trifluoromethyl)phenyl]ethyl]amino] imidazo[4,5-g]phthalazin-2-one]",0.00759 µM
5,"Cc1nnc(N[C@H](C)c2cccc(C(F)(F)CN)c2F)c2cc3c(cc12)n(C)c(=O)n3C [Compound 41, 1,3,8-trimethyl-5-[[(1R)-1-[3-(2-amino-1,1-difluoro-ethyl)-2-fluoro-phenyl]ethyl]amino]imidazo[4,5-g]phthalazin-2-one]",0.0162 µM
6,"Cc1nnc(N[C@H](C)c2cccc(C(F)(F)F)c2)c2cc3c(cc12)OCCC(=O)N3C [Compound 42, 5,10-dimethyl-7-[[(1R)-1-[3-(trifluoromethyl)phenyl]ethyl]amino]-2,3-dihydropyridazino[4,5-h][1,5]benzoxazepin-4-one]",0.0347 µM
7,"Cc1nnc(N[C@H](C)c2cccc(C(F)F)c2F)c2cc3c(cc12)C(C)(C)C(=O)N3C [Compound 44, 1,3,3,5-tetramethyl-8-[[(1R)-1-[3-(difluoromethyl)-2-fluoro-phenyl]ethyl]amino]pyrrolo[2,3-g]phthalazin-2-one]",0.00871 µM
8,"Cc1c(C#N)cccc1[C@@H](C)Nc1nnc(C)c2cc3c(cc12)n(C1CC1)c(=O)n3C [Compound 47, 2-methyl-3-[(1R)-1-[(3-cyclopropyl-1,8-dimethyl-2-oxo-imidazo[4,5-g]phthalazin-5-yl)amino]ethyl]benzonitrile]",0.0138 µM
9,"Cc1c(C#N)cccc1[C@@H](C)Nc1nnc(C)c2cc3c(cc12)N(C)C(=O)C3(C)C [Compound 48, 2-methyl-3-[(1R)-1-[(1,3,3,5-tetramethyl-2-oxo-pyrrolo[3,2-g]phthalazin-8-yl)amino]ethyl]benzonitrile]",0.0135 µM
10,"Cc1c(C#N)cccc1[C@@H](C)Nc1nnc(C)c2cc3c(cc12)n(C(C)(C)C)c(=O)n3C [Compound 49, 2-methyl-3-[(1R)-1-[(3-tert-butyl-1,8-dimethyl-2-oxo-imidazo[4,5-g]phthalazin-5-yl)amino]ethyl]benzonitrile]",0.0112 µM
11,"Cc1nnc(N[C@H](C)c2cccc(C(F)(F)CN)c2F)c2cc3c(cc12)n(C)c(=O)n3C(C)(C)C [Compound 53, 3-tert-butyl-1,8-dimethyl-5-[[(1R)-1-[3-(2-amino-1,1-difluoro-ethyl)-2-fluoro-phenyl]ethyl]amino]imidazo[4,5-g]phthalazin-2-one]",0.00501 µM
12,"Cc1nnc(N[C@H](C)c2cccc(C(F)(F)F)c2)c2cc3c(cc12)n(C1CC1)c(=O)n3C [Compound 56, 1-cyclopropyl-3,8-dimethyl-5-[[(1R)-1-[3-(trifluoromethyl)phenyl]ethyl]amino] imidazo[4,5-g]phthalazin-2-one]",0.0115 µM
